Literature values in US20070092573A1, “STABILIZED EXTENDED RELEASE PHARMACEUTICAL COMPOSITIONS COMPRISING A BETA-ADRENORECEPTOR ANTAGONIST” (priority 2005, published 2007).

COCCc1ccc(OCC(O)CNC(C)C)cc1 (stereo not shown) [Metoprolol Succinate]
water solubility: highly water-soluble
